Results reported in US20080039392A1, “CRAC channel and modulator screening methods” (THE REGENTS OF THE UNIVERSITY OF CALIFORNIA, priority 2006, published 2008).
“Also recorded” adds a separate entry of the source.

Columns and labels:
E180D Orai mutant + Stim = target: T1, E180D Orai mutant + Stim (Drosophila melanogaster, UniProt Q9U6B8, E178D); test: Whole-cell recording of E180D Orai-induced CRAC current in S2 cells; format: cell-based; conditions: for effect of divalent cation on E180D Orai-induced current: 20 mM external divalent vs 2 mM Ca2+; for IC50: scaled to current in divalent-free solution
T1 construct: A cDNA clone, pAc5.1/olf186-F, encoding full-length Drosophila olf186-F-RB; expressed in transfected cells; host or cells: Drosophila S2 cells (Invitrogen)
T1 sequence (Q9U6B8 whole entry E178D): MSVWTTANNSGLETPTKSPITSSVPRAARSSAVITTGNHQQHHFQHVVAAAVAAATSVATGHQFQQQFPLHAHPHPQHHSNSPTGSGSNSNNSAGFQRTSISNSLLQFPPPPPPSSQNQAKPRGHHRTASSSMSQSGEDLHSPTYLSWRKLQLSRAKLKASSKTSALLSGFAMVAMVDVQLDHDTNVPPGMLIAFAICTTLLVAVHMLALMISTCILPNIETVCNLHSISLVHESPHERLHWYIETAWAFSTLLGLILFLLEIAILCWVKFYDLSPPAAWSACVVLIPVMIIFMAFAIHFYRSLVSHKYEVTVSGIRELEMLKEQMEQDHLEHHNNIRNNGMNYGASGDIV
T1 sequence (P83094 24-570, further chain): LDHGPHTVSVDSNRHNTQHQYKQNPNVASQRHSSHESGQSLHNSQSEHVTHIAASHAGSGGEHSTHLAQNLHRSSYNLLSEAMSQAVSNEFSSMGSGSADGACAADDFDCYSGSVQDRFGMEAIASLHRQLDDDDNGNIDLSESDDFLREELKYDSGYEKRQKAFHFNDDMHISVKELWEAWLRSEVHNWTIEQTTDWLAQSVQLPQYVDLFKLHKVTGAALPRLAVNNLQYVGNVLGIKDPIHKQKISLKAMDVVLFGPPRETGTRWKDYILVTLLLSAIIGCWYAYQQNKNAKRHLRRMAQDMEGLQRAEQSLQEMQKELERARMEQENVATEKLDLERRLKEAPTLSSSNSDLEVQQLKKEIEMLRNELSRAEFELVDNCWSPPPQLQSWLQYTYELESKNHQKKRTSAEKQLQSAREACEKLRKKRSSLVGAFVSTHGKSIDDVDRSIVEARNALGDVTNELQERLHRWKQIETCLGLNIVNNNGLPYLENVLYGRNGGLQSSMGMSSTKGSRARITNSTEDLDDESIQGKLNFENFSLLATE
From the text: (§1) Generation of pAc5.1/EGFP, pAc5.1/D-STIM, pAc5.1/D-STIM-V5-His and pAc5.1/olf186-F (GenBank accession number DQ503470) were as described^5. olf186-F pore mutants were made by exchanging the corresponding codons (E180A: GAG to GCG; E180D: GAG to GAC; D184A: GAT to GCT; D186A: GAT to GCT; N188A: AAT to GCT; FIG. 14) using the QuikChange site-directed mutagenesis kit (Stratagene). The pAc5.1/HA-olf186-F clone was made by adding the HA tag via PCR and re-cloned into the XhoI and NotI sites of pAc5.1/V5-His B expression vector. Resulting clones were confirmed by sequencing. Description of the primers and conditions for cloning is available upon request. Both HA-olf186-F and Stim-V5-His were verified for normal function by whole-cell recording.
(§2) Cells transfected (Amaxa) with Orai and Stim constructs were identified by fluorescence of co-transfected GFP. Patch clamp experiments were performed at room temperature in the standard whole-cell recording, using conditions similar to those reported previously^10. The membrane capacitance of S2 cells selected for recording was 11.6±0.4 pF (n=131 cells). Membrane potentials were corrected for a liquid junction potential of 10 mV between the pipette and bath solution. The series resistance (2-7 MΩ) was not compensated. The membrane potential was held at −10 mV, and 220-ms voltage ramps from −130 to 90 mV alternating with 220-ms pulses to −130 mV were delivered every 2 s. Only cells with high input (>2 GΩ) were selected for recording. External and pipette solution recipes are listed in supplementary table 1. Analyzed data are presented as mean ±SEM.
(§3) Data were analyzed by Pulse (Heka Electronics) and Origin (OriginLab Corp.). Five I-V curves were averaged for display. […] Since almost all S2 cells at the moment of break-in display an outward current that disappears during perfusion with internal solution (but before the inward CRAC current starts to develop), the following procedure for leak subtraction was employed. The first three ramp currents after the outward current subsided were averaged (Imid). Then, another set of three ramps after maximal inward CRAC current had developed were averaged (Imax). The difference between Imax and Imid represents an isolated CRAC current but with amplitude less than the actual one. To correct this the difference was scaled such that the value of current at −130 mV is equal to maximal inward current minus initial inward current. Then the scaled difference was subtracted from Imax followed by fitting with a polynomial function. This fit was considered as the basal leak current. […] In this case a linear I-V curve reversing at 0 mV with current magnitude at +90 mV equal to the sustained outward current was assigned as leak current. For E180D Orai-induced CRAC current, the initial current was considered as leak.

[1] = test system: CRAC current in olf186-F+Stim transfected S2 cells; test: Whole-cell recording of CRAC current in S2 cells co-transfected with olf186-F (WT Orai) + Stim; format: cell-based, Drosophila; conditions: for CRAC current density: at −130 mV, high-Ca2+ pipette solution, 10 μM IP3 in pipette or TG in bath
Description: Whole-cell recording. Patch-clamp experiments were performed at room temperature in the standard whole-cell recording configuration. The membrane capacitance (a measure of cell surface area) of S2 cells selected for recording was 9.15±0.27 pF (mean ±SEM, n=287 cells, 22 experiments). To calculate current densities, peak current amplitudes were divided by membrane capacitance for each cell.
as §2, §3

[2] = target: T2, D184A, D186A, N188A Orai mutants + Stim (Drosophila melanogaster, UniProt Q9U6B8, D182A); test: Whole-cell recording of CRAC current of charge-neutralizing Orai mutants, block by Gd3+; format: cell-based; conditions: D184A Orai
T2 construct: A cDNA clone, pAc5.1/olf186-F, encoding full-length Drosophila olf186-F-RB; expressed in transfected cells; host or cells: Drosophila S2 cells (Invitrogen)
T2 sequence (P83094 24-570): as the sequence (P83094 24-570, further chain) above
T2 sequence (Q9U6B8 whole entry D182A): as the sequence (Q9U6B8 whole entry E178D) above, with D178E, D182A counted along it
From the text: as §1, §2

[3] = target: T3, D184A, D186A, N188A Orai mutants + Stim (Drosophila melanogaster, UniProt Q9U6B8, D184A); test: as above; format: cell-based; conditions: D186A Orai
T3 construct: A cDNA clone, pAc5.1/olf186-F, encoding full-length Drosophila olf186-F-RB; expressed in transfected cells; host or cells: Drosophila S2 cells (Invitrogen)
T3 sequence (P83094 24-570): as the sequence (P83094 24-570, further chain) above
T3 sequence (Q9U6B8 whole entry D184A): as the sequence (Q9U6B8 whole entry E178D) above, with D178E, D184A counted along it
From the text: as §1, §2

[4] = target: T4, D184A, D186A, N188A Orai mutants + Stim (Drosophila melanogaster, UniProt Q9U6B8, N186A); test: as above; format: cell-based; conditions: N188A Orai
T4 construct: A cDNA clone, pAc5.1/olf186-F, encoding full-length Drosophila olf186-F-RB; expressed in transfected cells; host or cells: Drosophila S2 cells (Invitrogen)
T4 sequence (P83094 24-570): as the sequence (P83094 24-570, further chain) above
T4 sequence (Q9U6B8 whole entry N186A): as the sequence (Q9U6B8 whole entry E178D) above, with D178E, N186A counted along it
From the text: as §1, §2

Drosophila S2 cells = test: Single-cell ratiometric fura-2 [Ca2+]i imaging; format: cell-based; conditions: ionomycin in zero-Ca2+ solution, control cells
Description: RNAi in Drosophila S2 cells. RNAi experiments were adapted from the protocols described by Worby et al. (2). Drosophila S2 cells (0.5×10^6) were seeded in T-25 flasks in 2 ml of complete S2 media. The next day, media was removed and replaced with 2 ml serum-free S2 media. 20 μg dsRNA was added and cells were incubated at room temperate for 45 min with gentle rocking. 4 ml S2 media was added and cells were incubated for 5 days at 24° C. Cells were then harvested and either plated for single cell Ca^2+ imaging and patch-clamp experiments or processed for RT-PCR analysis.
Single-cell [Ca2+]i imaging. Ratiometric [Ca2+]i imaging was performed as described, using solution recipes described in Table 3. Transfected cells were recognized by co-expressed enhanced green fluorescent protein (EGFP), using filters to avoid contamination of Fura-2 fluorescence by bleed-through of GFP fluorescence. Data were analysed with Metafluor software (Universal Imaging) and OriginPro 7.5 software (OriginLab) and are expressed as means ±SEM.

[5] = test system: Stim-Orai protein interaction; test: Co-immunoprecipitation of Stim and Orai; format: cell-based, Drosophila; conditions: Ca2+ store depletion, 1 μM TG 15 min
Description: Two days after transfection, 5×10^6 cells were treated with either Ringer or zero-Ca^2+ Ringer+1 μM TG using solutions described^6 for 15 min at room temperature. Cells transfected with Stim-V5-His only or HA-olf186-F only were used as controls. Cell extracts were then prepared using RIPA lysis buffer (Upstate) according to manufacturer instructions. The extracts were pre-cleared with protein A/G beads (Pierce) and protein concentration was determined, using the Pierce BCA Protein Reagent Kit. The cell lysate was then diluted to approximately 1 mg/ml total protein with PBS and mixed with either anti-HA monoclonal antibodies (1 μg/100 μg total protein, Santa Cruz) or anti-V5 monoclonal antibodies (1 μg/100 μg total protein, Invitrogen) for 4 hr at 4° C. Equal amount of samples were mixed with either normal mouse IgG or vehicle as negative controls. Protein A/G beads were subsequently added (1 μl/1 μg IgG) to rock overnight at 4° C. Proteins were eluted by boiling in 4× sample buffer (Invitrogen). Samples were resolved by SDS-PAGE and analyzed by standard western blotting techniques. Anti-HA monoclonal antibodies (Santa Cruz) were used at a dilution of 1:200. Anti-V5 monoclonal antibodies (Invitrogen) were used at a dilution of 1:2500. Proteins were detected by developing with the SuperSignal (Pierce) detection system.

NCCOB(c1ccccc1)c1ccccc1 [2-APB, 2-aminoethyldiphenyl borate]
time course of E180D outward CRAC current (E180D Orai mutant + Stim; 5 μM): immediate decrease preceding potentiation | time course of E180D outward CRAC current (E180D Orai mutant + Stim; 20 μM): immediate increase preceding inhibition | effect on Ca2+ (CRAC) current ([1]; 5 μM): characteristic potentiation of current before blocking; also recorded: potentiated | effect on Ca2+ (CRAC) current ([1]; 20 μM): blocked; also recorded: inhibited

[Ba+2] [Ba^2+]
effect of divalent cation on E180D Orai-induced current (E180D Orai mutant + Stim): significantly increased the inward current while decreasing the outward current

[Ca+2] [Ca^2+]
effect of divalent cation on E180D Orai-induced current (E180D Orai mutant + Stim): significantly decreased the outward current | IC50 (E180D Orai mutant + Stim; IC50, half-blocking Ca2+ concentration for inward current, at −130 mV): 0.048 ± 0.013 mM | IC50 (E180D Orai mutant + Stim; IC50, half-blocking Ca2+ concentration for outward current, at 90 mV): 2.05 ± 0.78 mM

[Gd+3] [Gd^3+]
suppression of native and WT Orai-induced CRAC current [1]: very effectively suppresses | effect on enhanced Ca2+ current ([1]; 50 nM): blocked | potency of Gd3+ block [2]: significantly reduced | potency of Gd3+ block [3]: significantly reduced | potency of Gd3+ block [4]: to a lesser degree

O=P(O)(O)O[C@@H]1[C@H](O)[C@H](O)[C@@H](OP(=O)(O)O)[C@H](OP(=O)(O)O)[C@H]1O [IP3, inositol 1,4,5-trisphosphate]
CRAC current density [1]: −11.4±3.1 pA/pF

[Mg+2] [Mg^2+]
effect of divalent cation on E180D Orai-induced current (E180D Orai mutant + Stim): increased the current

[Sr+2] [Sr^2+]
effect of divalent cation on E180D Orai-induced current (E180D Orai mutant + Stim): had little effect

C[C@H](CCC(=O)O)C[C@H](C)C[C@H](C)C(=O)/C=C(\O)[C@H](C)C[C@H](C)C/C=C/[C@@H](C)[C@@H](O)[C@@H](C)[C@@H](O)C[C@@H]1CC[C@@](C)([C@H]2CC[C@@](C)([C@@H](C)O)O2)O1 [ionomycin]
peak of Ca2+ release transient (Drosophila S2 cells): ~200 nM

C/C=C(/C)C(=O)O[C@H]1C(C)=C2[C@H]([C@@H]1OC(=O)CCCCCCC)[C@@](C)(OC(C)=O)C[C@H](OC(=O)CCC)[C@@]1(O)[C@H]2OC(=O)[C@@]1(C)O [thapsigargin]
Stim-Orai protein interaction (co-immunoprecipitation) [5]: dramatically increased | CRAC current density [1]: −7.6±2.5 pA/pF
